How the values were obtained:
ALK ECD cleavage = test: WB analysis of ALK ECD cleavage in cells treated with MMP inhibitors; assay type: cell-based; conditions: for levels of the shed ALK ECD fragment in media from treated cells: indicated doses; for ALK ECD cleavage / shed fragment: 2 μM×12 hr.
Source text: (§1) (A) WB analysis of ALK expression in lysates and CM of NGP cells treated with the broad-spectrum protease inhibitor GM6001 and the MMP-9/13 inhibitor CAS 204140-01-2, at the indicated doses, for 12 hr. Untreated (U) or DMSO-treated cells were used as controls. The 8G7 N-terminal anti-ALK antibody was used to detect the shed fragment in CM and a C-terminal anti-ALK antibody used for the cell lysates in this and subsequent panels. β-actin is used as a loading control throughout this figure. (B) WB analysis of ALK expression in NGP cells treated with the MMP-9 (CTK8G1150) and MMP-3/12/13 (MMP408) inhibitors (2 μM×12 hr.). (C) WB analysis of ALK expression in the indicated NB cell lines treated with or without CTK8G1150 (2 μM for 12 hr.). (D) WB analysis of MMP-9 and ALK expression in NGP and BE (2)-C NB cells expressing either a control shRNA (shGFP) or two different shRNAs against MMP-9. (E) Crystal violet-stained images of NGP and IMR-5 NB cells treated with CTK8G1150 ([…]) or DMSO for 16 hr. and then subjected to transwell migration assays for 48 hr. (left). Scale bar, 100 μm. Quantification of migration (right) reported as means±SD; ** p<0.01, n=4. See also, FIG. 14.
(A) Immunoblot analyses of ALK expression in NGP cells after shRNA depletion of ADAM17 or ADAM10. Five separate shRNAs for ADAM17 and two shRNAs for ADAM10 were used. GADPH or β-actin were included as internal loading controls in this and subsequent panels. (B) Schematic illustration of the protease predicted to cleave ALK at the identified ECD cleavage site (Asn654-Leu655) generated using PROSPER and CleavPredict software. FIG. 14B discloses SEQ ID NO: 73. (C) WB analysis of ALK expression in the indicated lysates or conditioned media from cells engineered to express WT ALK and treated with or without the MMP-9 inhibitor, CTK8G1150 (2 μM for 12 hr.). Untreated cells or cells treated with DMSO were used as controls. The 8G7 N-terminal anti-ALK antibody was used to detect the shed fragment in conditioned medium (CM) and a C-terminal anti-ALK antibody was used for the cell lysates in this and subsequent panels. (D) WB analysis of ALK expression in NGP cells treated with the indicated concentrations of CTK8G1150 for 12 hr. (E) WB analysis of ALK expression in NGP cells treated with CTK8G1150 (2 μM) for the indicated time periods. (F) WB analysis of ALK following incubation of recombinant MMP-9 to ALK protein purified from 293T cells engineered to express WT or ALK LF655del.
Most receptor tyrosine kinases (RTKs) undergo ECD cleavage by proteases known as sheddases, that include matrix metalloproteinases (MMPs) and A disintegrin and metalloproteinases (ADAMs) (Kreitman et al., 2018). These zinc-dependent, membrane-associated or secreted proteases cleave cell surface transmembrane proteins that play a primary role in the degradation of extracellular matrix proteins, thus affecting multiple biological functions, such as cell signaling, growth factor activation and cytokine release. […] We next determined whether ALK could be cleaved by MMP-9 in vitro (FIG. 14, panel F). […] Finally, to confirm the role of MMP-9 in ALK cleavage, we genetically depleted this protease through shRNA knockdown in two NB cell lines [NGP and BE(2)-C], observing a significant decrease in the 140 kDa product resulting from inhibition of cleavage (FIG. 7, panel D). Depletion of MMP-2, by contrast, led to only a slight decrease in cleavage.
Cell lysates were prepared in NP-40 buffer (Invitrogen) containing complete protease inhibitor (Roche), phosphatase inhibitor (Roche) and phenylmethylsulfonyl fluoride (PMSF). Lysates were incubated on ice for 20 min and centrifuged at 16,000 g for 15 min at 4° C. Protein concentrations of the supernatants were determined with the DC protein assay kit (Bio-Rad). Protein samples were denatured using NuPAGE LDS sample buffer (Invitrogen) and NuPAGE sample reducing agent (Invitrogen). […]

NGP and IMR-5 NB cells = test: Transwell migration assay after MMP-9 inhibitor treatment; assay type: cell-based, human; conditions: CTK8G1150 (2 µM) 16 hr., transwell migration 48 hr.
Source text: as §1
Cell migration was measured using transwell chambers (Falcon; cell culture inserts with 8 μm pores) and a 24-well plate as the lower chamber. […]

ALK-positive NSCLC = conditions: cited from earlier work
neuroblastoma = conditions: human, in vivo; cited from earlier work

Structure (SMILES): COc1ccc(S(=O)(=O)N2CCN(C(=O)c3ccc(-c4ccccc4)cc3)CC2C(=O)NO)cc1 (centres unmarked) [CAS 204140-01-2]
- levels of the shed ALK ECD fragment in media from treated cells (ALK ECD cleavage; NGP cells, 12 hr.): caused a decrease in the levels of the shed ALK ECD fragment

Structure (SMILES): CCN(CC)Cc1cc(C)c(N(Cc2ccccc2)S(=O)(=O)c2ccc(OC)cc2)c(C(=O)NO)c1 [CTK8G1150]
- inhibition of ECD cleavage in cells engineered to overexpress WT ALK (ALK ECD cleavage; 293T and NIH3T3 cells, 2 μM for 12 hr.): significant inhibition of ECD cleavage
- ECD cleavage in endogenous WT ALK-expressing NB cell lines (ALK ECD cleavage; NGP NB cells and four additional NB cell lines, 2 μM for 12 hr.): inhibited ECD cleavage
- period over which ALK ECD cleavage disruption was maintained (ALK ECD cleavage; NGP cells, 2 μM): > 52 h
- ALK ECD cleavage / shed fragment (ALK ECD cleavage; NGP cells): produced a marked decrease in the shed fragment
- dose dependence of ALK ECD cleavage disruption (ALK ECD cleavage; NGP cells, indicated concentrations, 12 hr.): disrupted in a dose-dependent manner
- migration of NB cells that endogenously expressed WT ALK (NGP and IMR-5 NB cells): significantly suppressed the migration

Structure (SMILES): CNC(=O)[C@H](Cc1c[nH]c2ccccc12)NC(=O)[C@@H](CC(=O)NO)CC(C)C [GM6001]
- levels of the shed ALK ECD fragment in media from treated cells (ALK ECD cleavage; NGP cells, 12 hr.): caused a decrease in the levels of the shed ALK ECD fragment

Structure (SMILES): COC(=O)Nc1ccc2oc3cc(S(=O)(=O)N[C@@H](C(=O)O)C(C)C)ccc3c2c1 [MMP408]
- ALK ECD cleavage / shed fragment (ALK ECD cleavage; NGP cells): did not affect cleavage

Structure (SMILES): Cc1cc(Nc2ncc(Cl)c(Nc3ccccc3S(=O)(=O)C(C)C)n2)c(OC(C)C)cc1C1CCNCC1 [ceritinib]
- median duration of response (ALK-positive NSCLC): 16.6 months

Structure (SMILES): C[C@@H](Oc1cc(-c2cnn(C3CCNCC3)c2)cnc1N)c1c(Cl)ccc(F)c1Cl [crizotinib]
- durability of responses in neuroblastoma patients (neuroblastoma): has not shown durable responses

Source: US20240262917A1, “ANTIBODIES AGAINST ALK AND METHODS OF USE THEREOF” (Dana-Farber Cancer Institute, Inc., priority 2021, published 2024)
